# Results from ChEMBL document CHEMBL1134790, “Design, synthesis, and evaluation of novel A2A adenosine receptor agonists” (J Med Chem, 2001).
# What was measured:
# [1] = target: T1, Adenosine receptor A1 (Rattus norvegicus, UniProt P25099); test: biochemical
# T1 sequence (P25099 whole entry): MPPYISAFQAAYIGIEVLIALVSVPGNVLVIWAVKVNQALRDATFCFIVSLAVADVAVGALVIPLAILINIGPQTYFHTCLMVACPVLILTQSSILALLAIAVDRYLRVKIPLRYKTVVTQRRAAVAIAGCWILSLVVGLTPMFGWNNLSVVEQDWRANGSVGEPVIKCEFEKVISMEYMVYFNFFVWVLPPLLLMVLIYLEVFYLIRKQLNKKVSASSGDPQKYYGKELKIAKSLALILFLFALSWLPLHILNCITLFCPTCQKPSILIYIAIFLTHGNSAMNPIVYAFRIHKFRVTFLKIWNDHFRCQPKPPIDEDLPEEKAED
# Description: Binding affinity towards adenosine A1 receptor in rat brain cortex
# [2] = target: Adenosine receptor A2a (Rattus norvegicus, UniProt P30543); test: biochemical
# Sequence of Adenosine receptor A2a (P30543 whole entry): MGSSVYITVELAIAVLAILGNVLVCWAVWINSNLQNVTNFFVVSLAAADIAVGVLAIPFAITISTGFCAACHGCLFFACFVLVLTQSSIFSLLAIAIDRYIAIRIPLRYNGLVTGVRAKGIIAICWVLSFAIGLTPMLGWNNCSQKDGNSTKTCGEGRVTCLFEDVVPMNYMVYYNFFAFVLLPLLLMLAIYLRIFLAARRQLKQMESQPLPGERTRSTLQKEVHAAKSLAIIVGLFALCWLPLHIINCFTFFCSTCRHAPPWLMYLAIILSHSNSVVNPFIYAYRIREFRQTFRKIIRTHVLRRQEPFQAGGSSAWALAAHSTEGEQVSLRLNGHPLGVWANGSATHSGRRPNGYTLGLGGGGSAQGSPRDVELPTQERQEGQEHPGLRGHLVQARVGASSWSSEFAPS
# Description: Binding affinity towards adenosine A2A receptor in rat brain striatum
SMILES,Ki [1] [nM],Ki [2] [nM]
Nc1nc(OCC2CCCCC2)nc2c1ncn2C1O[C@H](CO)[C@@H](O)[C@H]1O (stereo partly drawn),3000,3200
Nc1nc(C#CCCC2CCCCC2)nc2c1ncn2C1O[C@H](CO)[C@@H](O)[C@H]1O (stereo partly drawn),–,26
CCCCCCOc1nc(N)c2ncn(C3O[C@H](CO)[C@@H](O)[C@H]3O)c2n1 (stereo partly drawn),890,160
CCNC(=O)[C@H]1OC(n2cnc3c(N)nc(NCCc4ccc(OCC(=O)O)cc4)nc32)[C@H](O)[C@@H]1O (stereo partly drawn),–,42
CCCCOc1nc(N)c2ncn(C3O[C@H](CO)[C@@H](O)[C@H]3O)c2n1 (stereo partly drawn),2500,270
Nc1nc(OC2CCCC2)nc2c1ncn2[C@@H]1O[C@H](CO)[C@@H](O)[C@H]1O,14000,1000
CCNC(=O)[C@H]1OC(n2cnc3c(N)nc(C#CN(C)CCc4ccccc4)nc32)[C@H](O)[C@@H]1O (stereo partly drawn),12100,71
Nc1nc(OCCc2cccc(Cl)c2)nc2c1ncn2C1O[C@H](CO)[C@@H](O)[C@H]1O (stereo partly drawn),250,76
Nc1nc(CCO)nc2c1ncn2C1O[C@H](CO)[C@@H](O)[C@H]1O (stereo partly drawn),81.4,40.1
CCCOCCc1nc(N)c2ncn(C3O[C@H](CO)[C@@H](O)[C@H]3O)c2n1 (stereo partly drawn),128,10.2
CC(C)(C)OC(=O)C1CCCN1C[C@@H](O)[C@H](Cc1ccccc1)NC(=O)[C@H](CC(N)=O)NC(=O)OCc1ccccc1 (stereo partly drawn),130,2.2
CCc1nc(N)c2ncn(C3O[C@H](CO)[C@@H](O)[C@H]3O)c2n1 (stereo partly drawn),186,21.2
CCNC(=O)[C@H]1OC(n2cnc3c(N)nc(C#CNCCc4ccc(CC(=O)OC)cc4)nc32)[C@H](O)[C@@H]1O (stereo partly drawn),1260,9
Nc1nc(C#Cc2ccccc2)nc2c1ncn2[C@@H]1O[C@H](CO)[C@@H](O)[C@H]1O,–,109
CCCc1nc(N)c2ncn(C3O[C@H](CO)[C@@H](O)[C@H]3O)c2n1 (stereo partly drawn),154,7.5
COc1ccc(CCOc2nc(N)c3ncn(C4O[C@H](CO)[C@@H](O)[C@H]4O)c3n2)cc1 (stereo partly drawn),480,32
Cc1ccccc1CCOc1nc(N)c2ncn(C3O[C@H](CO)[C@@H](O)[C@H]3O)c2n1 (stereo partly drawn),450,39
COCc1nc(N)c2ncn(C3O[C@H](CO)[C@@H](O)[C@H]3O)c2n1 (stereo partly drawn),38.1,88.1
Nc1nc(C#CCCC2CCCC2)nc2c1ncn2C1O[C@H](CO)[C@@H](O)[C@H]1O (stereo partly drawn),–,3.4
Nc1nc(OCCCC2CCCCC2)nc2c1ncn2C1O[C@H](CO)[C@@H](O)[C@H]1O (stereo partly drawn),2800,22
Nc1nc(C#CC2CCCC2)nc2c1ncn2[C@@H]1O[C@H](CO)[C@@H](O)[C@H]1O,–,12

SMILES,Ki [1] [nM],Ki [2] [nM]
CCCCc1nc(N)c2ncn(C3O[C@H](CO)[C@@H](O)[C@H]3O)c2n1 (stereo partly drawn),126,2.8
CC(C)CCCOc1nc(N)c2ncn(C3O[C@H](CO)[C@@H](O)[C@H]3O)c2n1 (stereo partly drawn),2100,130
Nc1nc(OCCO)nc2c1ncn2C1O[C@H](CO)[C@@H](O)[C@H]1O (stereo partly drawn),72,690
CCNC(=O)[C@H]1OC(n2cnc3c(N)nc(NCCc4ccc(Cl)cc4)nc32)[C@H](O)[C@@H]1O (stereo partly drawn),–,7.5
CCCCCOc1nc(N)c2ncn(C3O[C@H](CO)[C@@H](O)[C@H]3O)c2n1 (stereo partly drawn),460,150
CCNC(=O)[C@H]1OC(n2cnc3c(N)nc(CC4CCC(COC(C)=O)CC4)nc32)[C@H](O)[C@@H]1O (stereo partly drawn),14,6.2
Nc1nc(CO)nc2c1ncn2C1O[C@H](CO)[C@@H](O)[C@H]1O (stereo partly drawn),10.1,20.5
COc1ccccc1CCOc1nc(N)c2ncn(C3O[C@H](CO)[C@@H](O)[C@H]3O)c2n1 (stereo partly drawn),190,36
CCCOc1nc(N)c2ncn(C3O[C@H](CO)[C@@H](O)[C@H]3O)c2n1 (stereo partly drawn),1200,360
CCNC(=O)[C@H]1OC(n2cnc3c(N)nc(CC4CCC(CO)CC4)nc32)[C@H](O)[C@@H]1O (stereo partly drawn),0.84,0.48
CC(C)Oc1nc(N)c2ncn(C3O[C@H](CO)[C@@H](O)[C@H]3O)c2n1 (stereo partly drawn),20000,7400
Nc1nc(OCc2ccccc2)nc2c1ncn2C1O[C@H](CO)[C@@H](O)[C@H]1O (stereo partly drawn),600,2200
Nc1nc(OCCc2cccc(F)c2)nc2c1ncn2[C@@H]1O[C@H](CO)[C@@H](O)[C@H]1O (stereo in doubt; 24),150,58
COc1cccc(CCOc2nc(N)c3ncn(C4O[C@H](CO)[C@@H](O)[C@H]4O)c3n2)c1 (stereo partly drawn),760,320
Nc1nc(OCCc2ccc(Cl)cc2)nc2c1ncn2[C@@H]1O[C@H](CO)[C@@H](O)[C@H]1O [SONEDENOSON],89,22
Cc1cccc(CCOc2nc(N)c3ncn(C4O[C@H](CO)[C@@H](O)[C@H]4O)c3n2)c1 (stereo partly drawn),140,61
CCC(CC)CCOc1nc(N)c2ncn(C3O[C@H](CO)[C@@H](O)[C@H]3O)c2n1 (stereo partly drawn),1490,530
Nc1nc(C#CCCc2ccccc2)nc2c1ncn2[C@@H]1O[C@H](CO)[C@@H](O)[C@H]1O,–,37
Nc1nc(OCCc2ccc(F)cc2)nc2c1ncn2[C@@H]1O[C@H](CO)[C@@H](O)[C@H]1O,500,97
Cc1ccc(CCOc2nc(N)c3ncn(C4O[C@H](CO)[C@@H](O)[C@H]4O)c3n2)cc1 (stereo partly drawn),49,11
Nc1nc(OCCc2cccc(F)c2)nc2c1ncn2[C@@H]1O[C@H](CO)[C@@H](O)[C@H]1O (stereo in doubt; 92),180,110

SMILES,Ki [1] [nM],Ki [2] [nM]
Nc1nc(OCCCc2ccccc2)nc2c1ncn2[C@@H]1O[C@H](CO)[C@@H](O)[C@H]1O,3600,1200
C#Cc1nc(N)c2ncn(C3O[C@H](CO)[C@@H](O)[C@H]3O)c2n1 (stereo partly drawn),–,37.6
Nc1nc(OCCC2CCCCC2)nc2c1ncn2[C@@H]1O[C@H](CO)[C@@H](O)[C@H]1O,1600,22
CCOCCCc1nc(N)c2ncn(C3O[C@H](CO)[C@@H](O)[C@H]3O)c2n1 (stereo partly drawn),244,12.8
Nc1nc(OCCc2ccccc2)nc2c1ncn2[C@@H]1O[C@H](CO)[C@@H](O)[C@H]1O,130,17
C[C@@H](CCOc1nc(N)c2ncn(C3O[C@H](CO)[C@H](O)[C@@H]3O)c2n1)c1ccccc1 (stereo partly drawn),1600,1700
COc1cc(CCOc2nc(N)c3ncn(C4O[C@H](CO)[C@@H](O)[C@H]4O)c3n2)cc(OC)c1OC (stereo partly drawn),5000,330
CC[C@H](COc1nc(N)c2ncn(C3O[C@H](CO)[C@@H](O)[C@H]3O)c2n1)c1ccccc1 (stereo partly drawn),2300,430
Nc1nc(OCCCCC2CCCCC2)nc2c1ncn2C1O[C@H](CO)[C@@H](O)[C@H]1O (stereo partly drawn),1100,18
Nc1nc(OCCC2CCCC2)nc2c1ncn2C1O[C@H](CO)[C@@H](O)[C@H]1O (stereo partly drawn),1600,120
CCNC(=O)[C@H]1OC(n2cnc3c(N)nc(C#CNCc4ccccc4)nc32)[C@H](O)[C@@H]1O (stereo partly drawn),8600,1130
Nc1nc(OCCCCc2ccccc2)nc2c1ncn2[C@@H]1O[C@H](CO)[C@@H](O)[C@H]1O,2400,170
CCC(CC)COc1nc(N)c2ncn(C3O[C@H](CO)[C@@H](O)[C@H]3O)c2n1 (stereo partly drawn),2700,4600
CCCCCC#Cc1nc(N)c2ncn([C@@H]3O[C@H](CO)[C@@H](O)[C@H]3O)c2n1,–,5.4
CCCCCCc1nc(N)c2ncn(C3O[C@H](CO)[C@@H](O)[C@H]3O)c2n1 (stereo partly drawn),202,12.1
CCOc1nc(N)c2ncn([C@@H]3O[C@H](CO)[C@@H](O)[C@H]3O)c2n1,1300,1500
CCNC(=O)[C@H]1OC(n2cnc3c(N)nc(CC4CCC(C(=O)O)CC4)nc32)[C@H](O)[C@@H]1O (stereo partly drawn),292,20.1
Nc1nc(C#CC2CCCCC2)nc2c1ncn2C1O[C@H](CO)[C@@H](O)[C@H]1O (stereo partly drawn),–,10
Nc1nc(OCCc2ccccc2Cl)nc2c1ncn2C1O[C@H](CO)[C@@H](O)[C@H]1O (stereo partly drawn),520,56
CCCOCc1nc(N)c2ncn(C3O[C@H](CO)[C@@H](O)[C@H]3O)c2n1 (stereo partly drawn),–,10.6
